Data from US20150026842A1, “METHOD OF CONTROLLING SUDDEN DEATH SYNDROME WITH FLUTRIAFOL” (CHEMINOVA A/S, priority 2013, published 2015).

Tests used:
Fusarium virguliforme = test: Mycelial colony growth of Fusarium virguliforme on flutriafol-amended PDA; format: cell-based
Method: Inhibition of Fusarium virguliforme was tested in the following example:
The flutriafol composition used in the example was TOPGUARD (125 g/L flutriafol SC). Each pathogen was grown out on fresh potato dextrose agar (commercial PDA), assessed and used to seed 2× autoclaved rice for inoculums development. At 7-10 days, two infested rice grains of each pathogen (2 per pathogen type) was placed at equal distances on flutriafol-amended PDA and incubated at 27-29° C. Mycelial colony diameter from each rice grain was measured at 1, 3, 5 and 7 days from grain placement. The included tables and data sets illustrate the differences in mycelia growth in response to various concentrations of the fungicide for one of the SDS pathogen types, Fusarium virguliforme.

[1] = tested on: Sudden Death Syndrome (SDS); test: Field trial: flutriafol applied pre-emergence to soybean for control of Sudden Death Syndrome; format: in vivo
Method: The determination of the efficacy and selectivity of flutriafol fungicide when applied pre-emergence to soybean for control of Sudden Death Syndrome (SDS) was tested in the following example:
The experiment was conducted in a Drummer silty clay loam soil with a pH of 6.8 and 3.0% organic matter. The experiment was set up as a randomized complete block with four replications. Plots were four 30 inch rows or a total of 10 ft. wide by 40 ft. long. Plot site was conventionally tilled and the trial was established on May 15, 2013, by planting NK S36-B6, a sudden death syndrome susceptible soybean variety. Seed was planted 1.5 inches deep and the seeding rate was 140,000 seeds/A. Topguard (a commercially available flutriafol SC formulation comprising 125 g/l) was applied at planting in-furrow in a 3-5 inch T-band perpendicular to the row with Teejet 4001E nozzles in a spray volume of 2 GPA. Topguard rates applied were 0.13, 0.195, 0.26 lb ai/acre (corresponding to 145.7, 218.6, 291.4 g ai/ha, respectively). These correspond to rates of 16, 24, or 32 fl oz of product/acre, respectively. One treatment of a 3-5 inch band of 32 fl oz/A Topguard was applied on May 21 as an ‘At Cracking’ application immediately prior to crop emergence. Trial was inoculated with SDS on sterile sorghum media that was applied in-furrow with a gandy box at planting at a rate of 25 ml per 20 ft of row. Data was collected from the two center rows from each plot.
Drip irrigation was installed so the trial had no moisture stress throughout the season. On August 12, 19 and 30, soybean sudden death syndrome (SDS) incidence (0-100%) and severity (0-9) were evaluated. An SDS disease index (SDS DX) was created by multiplying the % Incidence by the % Severity and dividing by 9. Soybeans were harvested on October 10 and yields were calculated and adjusted to bu/A at 13% moisture.

[2] = applied in a T-Band, August 12 and August 19

## OC(Cn1cncn1)(c1ccc(F)cc1)c1ccccc1F (racemic) [flutriafol, (RS)-2,4′-difluoro-α-(1H-1,2,4-triazol-1-ylmethyl)benzhydryl alcohol]
Fusarium virguliforme; 0.01 ppm in PDA
  Dia (mm) 1 day: 0 mm
  Dia (mm) 3 days: 10.4 mm
  Dia (mm) 5 days: 15.6 mm
  Dia (mm) 7 days: 19.6 mm
Fusarium virguliforme; 0.1 ppm in PDA
  Dia (mm) 1 day: 0 mm
  Dia (mm) 3 days: 10.1 mm
  Dia (mm) 5 days: 16.4 mm
  Dia (mm) 7 days: 19.8 mm
Fusarium virguliforme; 1 ppm in PDA
  Dia (mm) 1 day: 0 mm
  Dia (mm) 3 days: 9.6 mm
  Dia (mm) 5 days: 15.3 mm
  Dia (mm) 7 days: 20 mm
Fusarium virguliforme; 10 ppm in PDA
  Dia (mm) 1 day: 0 mm
  Dia (mm) 3 days: 7.5 mm
  Dia (mm) 5 days: 13.9 mm
  Dia (mm) 7 days: 18.1 mm
Fusarium virguliforme; 100 ppm in PDA
  Dia (mm) 1 day: 0 mm
  Dia (mm) 3 days: 0 mm
  Dia (mm) 5 days: 0 mm
  Dia (mm) 7 days: 3 mm
Fusarium virguliforme; 250 ppm in PDA, 27-29° C.
  Dia (mm) 1 day: 0 mm
Fusarium virguliforme; 250 ppm in PDA
  Dia (mm) 3 days: 0 mm
  Dia (mm) 5 days: 0 mm
  Dia (mm) 7 days: 0 mm
[1]; T-band at 16, 24 or 32 oz/A, compared to the 'At Cracking' application and the untreated check
  soybean yield: trend to higher soybean yield
[1]; [2]
  Disease Index scores: numerically lower
  SDS Incidence: numerically lower
